Patent US9737522B2, “NMDA receptor modulators and uses related thereto” (EMORY UNIVERSITY, priority 2012, dated 2017)

Experiments:
Type in all cases: cell-based
[1] = molecular target: recombinant rat GluN1/GluN2A receptors (NR2A) (Rattus norvegicus (Rat), UniProt P35439+Q00959); assay: Two-electrode voltage-clamp recordings, Xenopus laevis oocytes, NR2A; conditions: current in the absence of compound = 100%, 100 μM glutamate plus 30 μM glycine, read-out: NR2A response
Experimental: (§1) Two-electrode voltage-clamp recordings were made from Xenopus laevis oocytes expressing recombinant rat GluN1/GluN2A, GluN1/GluN2B, GluN1/GluN2C, GluN1/GluN2D, GluA1, or GluK2 receptors following injection of 5-10 ng of cRNA synthesized according to manufacturers' protocols (Ambin, mMessage, mMachine). cDNAs used were rat GluN1-1a (GenBank accession numbers U11418 and U08261; hereafter GluN1), GluN2A (D13211), GluN2B (U11419), GluN2C (M91563), GluN2D (L31611), GluA1 (X17184), GluK2 (Z11548). The current under voltage-clamp was recorded during perfusion with recording solution containing (in mM) 90 NaCl, 1.0 KCl, 0.5 BaCl2, 0.005 EDTA, and 10 HEPES at pH 7.4 (23° C.). Glass micropipettes had resistances of 0.3-1.0 MS2 and were filled with 3.0 M KCl. The membrane potential was clamped at −40 mV during the experiment. Recordings were digitized at 10 Hz and analyzed off line. 20 mM stock solutions of test compounds in 100% DMSO were made and diluted to obtain the final concentration; final DMSO content was 0.05-0.5% (vol/vol). Oocytes expressing GluK2 homomeric receptors were first treated with 10 μM concanavalin A (10 minutes). NMDA receptor responses were obtained by challenging oocytes with 100 μM glutamate plus 30 μM glycine; GluA1 and GluK2 receptors responses were recorded during application of 100 μM glutamate. We recorded the response to 5-7 concentrations of test drug co-applied with glutamate and glycine in 5 or more oocytes obtained from two different frogs. […] N is the Hill slope and maximum is the response predicted for saturating concentration of potentiator.

[2] = molecular target: recombinant rat GluN1/GluN2B receptors (NR2B) (Rattus norvegicus (Rat), UniProt P35439+Q00960); assay: Two-electrode voltage-clamp recordings, Xenopus laevis oocytes, NR2B; conditions: current in the absence of compound = 100%, 100 μM glutamate plus 30 μM glycine, read-out: NR2B response
Experimental: as §1

[3] = molecular target: recombinant rat GluN1/GluN2C receptors (NR2C) (Rattus norvegicus (Rat), UniProt P35439+Q00961); assay: Two-electrode voltage-clamp recordings, Xenopus laevis oocytes, NR2C; conditions: head prints IC50; method describes EC50 of potentiator
Experimental: as §1

[4] = molecular target: recombinant rat GluN1/GluN2D receptors (NR2D) (Rattus norvegicus (Rat), UniProt P35439+Q62645); assay: Two-electrode voltage-clamp recordings, Xenopus laevis oocytes, NR2D; conditions: current in the absence of compound = 100%, 100 μM glutamate plus 30 μM glycine, read-out: NR2D response
Experimental: as §1

[5] = molecular target: recombinant rat GluN1/GluN2C receptors (NR2C) (Rattus norvegicus (Rat), UniProt Q00961); assay: Two-electrode voltage-clamp recordings, Xenopus laevis oocytes, NR2C; conditions: at 100 uM; current in the absence of compound = 100%; 100 μM glutamate plus 30 μM glycine
Experimental: as §1

Sequence of recombinant rat GluN1/GluN2A receptors (NR2A) (Q00959 23-1464, other chains not shown): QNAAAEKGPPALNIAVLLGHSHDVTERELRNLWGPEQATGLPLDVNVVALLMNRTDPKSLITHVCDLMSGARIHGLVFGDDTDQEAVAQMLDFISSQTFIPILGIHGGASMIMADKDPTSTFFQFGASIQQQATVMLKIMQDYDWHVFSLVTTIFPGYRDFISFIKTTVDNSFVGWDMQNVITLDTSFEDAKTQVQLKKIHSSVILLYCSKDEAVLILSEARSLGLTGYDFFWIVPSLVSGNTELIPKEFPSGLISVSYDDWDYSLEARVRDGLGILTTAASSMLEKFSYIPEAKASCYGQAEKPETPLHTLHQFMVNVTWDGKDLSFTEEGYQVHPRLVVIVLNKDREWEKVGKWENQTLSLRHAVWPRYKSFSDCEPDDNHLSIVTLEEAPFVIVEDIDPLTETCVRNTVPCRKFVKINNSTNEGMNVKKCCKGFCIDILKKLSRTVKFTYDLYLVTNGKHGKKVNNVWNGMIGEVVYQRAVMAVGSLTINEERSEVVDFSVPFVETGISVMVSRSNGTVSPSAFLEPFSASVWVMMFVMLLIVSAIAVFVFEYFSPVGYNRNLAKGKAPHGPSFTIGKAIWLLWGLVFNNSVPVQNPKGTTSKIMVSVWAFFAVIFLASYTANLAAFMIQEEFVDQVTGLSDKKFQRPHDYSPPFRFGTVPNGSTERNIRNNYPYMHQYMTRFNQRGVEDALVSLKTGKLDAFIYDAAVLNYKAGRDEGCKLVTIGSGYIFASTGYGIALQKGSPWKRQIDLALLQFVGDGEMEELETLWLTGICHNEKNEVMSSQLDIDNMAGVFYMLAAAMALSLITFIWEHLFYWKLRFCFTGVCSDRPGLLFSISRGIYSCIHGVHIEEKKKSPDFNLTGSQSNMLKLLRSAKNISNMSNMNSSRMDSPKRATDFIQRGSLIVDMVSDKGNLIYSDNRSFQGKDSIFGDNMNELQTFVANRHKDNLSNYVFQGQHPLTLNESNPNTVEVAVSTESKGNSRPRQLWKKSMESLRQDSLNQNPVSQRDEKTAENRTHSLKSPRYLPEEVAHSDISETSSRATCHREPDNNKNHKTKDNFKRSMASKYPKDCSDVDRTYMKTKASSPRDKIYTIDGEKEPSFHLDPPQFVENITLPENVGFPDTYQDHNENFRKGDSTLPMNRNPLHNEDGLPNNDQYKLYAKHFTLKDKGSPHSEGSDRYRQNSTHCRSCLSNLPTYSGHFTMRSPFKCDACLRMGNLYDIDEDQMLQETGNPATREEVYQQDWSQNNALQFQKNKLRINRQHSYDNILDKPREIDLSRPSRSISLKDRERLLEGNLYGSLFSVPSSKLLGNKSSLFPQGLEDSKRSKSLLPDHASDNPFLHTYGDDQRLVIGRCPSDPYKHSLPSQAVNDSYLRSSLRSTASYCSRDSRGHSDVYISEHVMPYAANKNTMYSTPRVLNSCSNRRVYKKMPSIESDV
Sequence of recombinant rat GluN1/GluN2C receptors (NR2C) (Rattus norvegicus (Rat), UniProt P35439+Q00961) (Q00961 20-1237, other chains not shown): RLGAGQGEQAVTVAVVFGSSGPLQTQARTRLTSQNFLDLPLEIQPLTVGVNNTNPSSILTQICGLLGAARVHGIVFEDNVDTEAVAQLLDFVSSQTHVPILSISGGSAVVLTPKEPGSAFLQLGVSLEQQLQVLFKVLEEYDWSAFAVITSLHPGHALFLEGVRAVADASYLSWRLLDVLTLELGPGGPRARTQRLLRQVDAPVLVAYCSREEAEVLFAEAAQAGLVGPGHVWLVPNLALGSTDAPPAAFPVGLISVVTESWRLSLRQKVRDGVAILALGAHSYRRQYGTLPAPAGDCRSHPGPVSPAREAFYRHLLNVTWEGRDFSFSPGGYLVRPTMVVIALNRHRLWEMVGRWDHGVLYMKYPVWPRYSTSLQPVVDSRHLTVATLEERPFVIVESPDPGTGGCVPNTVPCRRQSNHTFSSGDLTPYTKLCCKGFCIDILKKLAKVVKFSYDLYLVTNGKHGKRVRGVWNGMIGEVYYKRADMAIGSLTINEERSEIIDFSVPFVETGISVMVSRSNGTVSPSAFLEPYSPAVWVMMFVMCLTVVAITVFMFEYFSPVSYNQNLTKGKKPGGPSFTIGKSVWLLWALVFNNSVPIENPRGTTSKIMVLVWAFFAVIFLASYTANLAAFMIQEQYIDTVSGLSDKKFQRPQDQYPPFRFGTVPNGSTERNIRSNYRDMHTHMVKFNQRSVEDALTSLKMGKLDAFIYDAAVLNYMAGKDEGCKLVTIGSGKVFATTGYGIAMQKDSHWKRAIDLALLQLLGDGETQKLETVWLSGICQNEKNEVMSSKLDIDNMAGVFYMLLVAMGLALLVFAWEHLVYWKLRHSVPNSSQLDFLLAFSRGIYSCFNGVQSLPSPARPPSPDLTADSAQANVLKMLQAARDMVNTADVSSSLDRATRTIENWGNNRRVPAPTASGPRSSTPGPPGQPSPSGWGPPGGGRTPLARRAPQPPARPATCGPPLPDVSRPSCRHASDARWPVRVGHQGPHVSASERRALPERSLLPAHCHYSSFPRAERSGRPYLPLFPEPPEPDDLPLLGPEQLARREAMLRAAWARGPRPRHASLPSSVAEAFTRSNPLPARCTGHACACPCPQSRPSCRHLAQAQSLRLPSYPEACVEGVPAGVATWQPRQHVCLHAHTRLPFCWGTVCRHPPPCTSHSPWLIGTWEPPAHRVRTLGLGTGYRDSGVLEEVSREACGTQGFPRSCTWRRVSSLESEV
Sequence of recombinant rat GluN1/GluN2D receptors (NR2D) (Q62645 28-1323, other chains not shown): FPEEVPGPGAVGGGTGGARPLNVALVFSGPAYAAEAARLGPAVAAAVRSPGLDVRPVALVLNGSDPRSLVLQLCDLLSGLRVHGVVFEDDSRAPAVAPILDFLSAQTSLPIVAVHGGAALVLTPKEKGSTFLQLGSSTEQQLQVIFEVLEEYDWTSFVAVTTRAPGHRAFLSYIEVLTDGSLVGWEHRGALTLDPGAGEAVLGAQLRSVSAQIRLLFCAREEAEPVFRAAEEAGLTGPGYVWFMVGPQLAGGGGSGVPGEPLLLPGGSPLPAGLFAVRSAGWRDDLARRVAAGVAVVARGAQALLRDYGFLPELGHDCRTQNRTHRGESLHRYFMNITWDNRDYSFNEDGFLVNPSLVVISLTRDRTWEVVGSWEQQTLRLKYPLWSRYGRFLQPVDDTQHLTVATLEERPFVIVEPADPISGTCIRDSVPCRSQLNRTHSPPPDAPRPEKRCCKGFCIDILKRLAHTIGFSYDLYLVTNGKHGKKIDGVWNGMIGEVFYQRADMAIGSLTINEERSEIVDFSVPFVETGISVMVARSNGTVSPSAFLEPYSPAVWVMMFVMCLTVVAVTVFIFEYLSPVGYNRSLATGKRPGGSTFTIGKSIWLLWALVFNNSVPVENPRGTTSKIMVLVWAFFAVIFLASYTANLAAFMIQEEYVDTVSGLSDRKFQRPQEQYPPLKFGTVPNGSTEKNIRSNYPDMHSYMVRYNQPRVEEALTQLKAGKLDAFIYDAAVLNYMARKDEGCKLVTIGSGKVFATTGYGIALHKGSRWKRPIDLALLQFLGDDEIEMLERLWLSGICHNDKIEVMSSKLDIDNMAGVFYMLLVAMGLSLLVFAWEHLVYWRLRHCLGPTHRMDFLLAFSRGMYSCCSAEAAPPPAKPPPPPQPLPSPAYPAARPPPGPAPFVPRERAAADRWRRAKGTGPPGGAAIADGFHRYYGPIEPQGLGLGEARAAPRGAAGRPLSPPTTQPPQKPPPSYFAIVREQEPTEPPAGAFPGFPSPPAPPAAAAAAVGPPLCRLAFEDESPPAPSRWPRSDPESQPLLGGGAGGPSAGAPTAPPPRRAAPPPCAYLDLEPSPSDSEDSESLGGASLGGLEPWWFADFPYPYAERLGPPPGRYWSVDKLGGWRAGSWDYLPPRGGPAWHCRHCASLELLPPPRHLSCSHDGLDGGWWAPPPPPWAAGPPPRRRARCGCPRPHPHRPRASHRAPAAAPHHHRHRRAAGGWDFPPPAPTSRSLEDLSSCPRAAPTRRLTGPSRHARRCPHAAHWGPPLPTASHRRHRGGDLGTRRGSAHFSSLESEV
Sequence of recombinant rat GluN1/GluN2C receptors (NR2C) (Rattus norvegicus (Rat), UniProt Q00961) (Q00961 20-1237, other chains not shown): as the sequence (Q00961 20-1237, other chains not shown) above

COC(=O)c1ccc(C2C(C(=O)c3cccnc3)=C(O)C(=O)N2CCc2c[nH]c3cc(C)ccc23)cc1 (centres unmarked)
activity at 100 µM [1]: 91%
activity at 100 µM [2]: 66%
EC50 (potentiation) [3]: 4 µM
activity at 100 µM [4]: 64%

CCOC(=O)c1ccc(C2C(C(=O)c3cccnc3)=C(O)C(=O)N2CCc2c[nH]c3cc(C)ccc23)cc1 (centres unmarked)
activity at 100 µM [1]: 74%
activity at 100 µM [2]: 61%
EC50 (potentiation) [3]: 7 µM
activity at 100 µM [4]: 69%

CCOC(=O)c1ccc(C2C(C(=O)c3ccncc3)=C(O)C(=O)N2CCc2c[nH]c3cc(C)ccc23)cc1 (centres unmarked)
activity at 100 µM [1]: 99%
activity at 100 µM [2]: 77%
EC50 (potentiation) [3]: 9 µM
activity at 100 µM [4]: 73%

COC(=O)c1ccc(C2C(C(=O)c3ccncc3)=C(O)C(=O)N2CCc2c[nH]c3ccccc23)cc1 (centres unmarked)
activity at 100 µM [1]: 78%
activity at 100 µM [2]: 72%
EC50 (potentiation) [3]: 8 µM
activity at 100 µM [4]: 72%

CCOC(=O)c1ccc(C2C(C(C)=O)=C(O)C(=O)N2CCc2c[nH]c3ccccc23)cc1 (centres unmarked)
activity at 100 µM [1]: 96%
activity at 100 µM [2]: 75%
EC50 (potentiation) [3]: 15 µM
activity at 100 µM [4]: 79%

CCOC(=O)c1ccc(C2C(C(C)=O)=C(O)C(=O)N2CCc2c(C)[nH]c3ccccc23)cc1 (centres unmarked)
activity at 100 µM [1]: 89%
activity at 100 µM [2]: 79%
EC50 (potentiation) [3]: 12 µM
activity at 100 µM [4]: 73%

COC(=O)c1ccc(C2C(C(C)=O)=C(O)C(=O)N2CCc2c[nH]c3ccccc23)c(OC)c1 (centres unmarked)
activity at 100 µM [1]: 99%
activity at 100 µM [2]: 79%
EC50 (potentiation) [3]: 20 µM
activity at 100 µM [4]: 99%

COC(=O)c1ccc(C2C(C(C)=O)=C(O)C(=O)N2CCc2c[nH]c3ccccc23)c(O)c1 (centres unmarked)
activity at 100 µM [1]: 102%
activity at 100 µM [2]: 77%
EC50 (potentiation) [3]: 15 µM
activity at 100 µM [4]: 79%

COC(=O)c1ccc(C2C(C(=O)c3cccnc3)=C(O)C(=O)N2CCc2c[nH]c3cc(F)ccc23)cc1 (centres unmarked)
activity at 100 µM [1]: 80%
activity at 100 µM [2]: 37%
EC50 (potentiation) [3]: 14 µM
activity at 100 µM [4]: 64%

COC(=O)c1ccc(C2C(C(=O)c3cccnc3)=C(O)C(=O)N2CCc2c[nH]c3cc(Cl)ccc23)cc1 (centres unmarked)
activity at 100 µM [1]: 83%
activity at 100 µM [2]: 43%
EC50 (potentiation) [3]: 4 µM
activity at 100 µM [4]: 61%

COC(=O)c1ccc(C2C(C(=O)c3ccccc3Cl)=C(O)C(=O)N2CCc2c[nH]c3ccccc23)cc1 (centres unmarked)
activity at 100 µM [1]: 68%
activity at 100 µM [2]: 72%
EC50 (potentiation) [3]: 26 µM
activity at 100 µM [4]: 115%

COC(=O)c1ccc(C2C(C(=O)c3cccc(O)c3)=C(O)C(=O)N2CCc2c[nH]c3ccccc23)cc1 (centres unmarked)
activity at 100 µM [1]: 76%
EC50 (potentiation) [3]: 5 µM

COC(=O)c1ccc(C2C(C(=O)c3ccncc3)=C(O)C(=O)N2CCc2cccc3ccccc23)cc1 (centres unmarked)
EC50 (potentiation) [3]: 11 µM

O=C(C1=C(O)C(=O)N(CCc2c[nH]c3ccccc23)C1c1cccs1)c1cccnc1 (centres unmarked)
activity at 100 µM [1]: 43%
activity at 100 µM [2]: 71%
EC50 (potentiation) [3]: 12 µM
activity at 100 µM [4]: 73%

COC(=O)c1ccc(C2C(C(=O)c3ccncc3)=C(O)C(=O)N2CCc2c[nH]cn2)cc1 (centres unmarked)
activity at 100 µM [1]: 97%
activity at 100 µM [2]: 91%
NR2C response [5]: 84% response at 100 uM
activity at 100 µM [4]: 90%

COC(=O)c1ccc(C2C(C(=O)c3ccncc3)=C(O)C(=O)N2CCc2ccncc2)cc1 (centres unmarked)
activity at 100 µM [1]: 103%
activity at 100 µM [2]: 94%
NR2C response [5]: 97% response at 100 uM
activity at 100 µM [4]: 95%
